# Assay results: ChEMBL document CHEMBL5137094, “Construction of Covalent Bisubstrate Inhibitor of Protein Kinase Reacting with Cysteine Residue at Substrate-Binding Site” (J Med Chem, 2022)
# Activity calls are given as the source filed them. No cut-off for these calls is given here.
# Columns and labels:
# [1] = target: T1, Aurora kinase A (Homo sapiens) (UniProt O14965); test: Inhibition of N-terminal 6His-tagged active recombinant full length human Aurora A-mediated phosphorylation assessed as residual activity at 100 nM relative to control
# T1 sequence (whole entry): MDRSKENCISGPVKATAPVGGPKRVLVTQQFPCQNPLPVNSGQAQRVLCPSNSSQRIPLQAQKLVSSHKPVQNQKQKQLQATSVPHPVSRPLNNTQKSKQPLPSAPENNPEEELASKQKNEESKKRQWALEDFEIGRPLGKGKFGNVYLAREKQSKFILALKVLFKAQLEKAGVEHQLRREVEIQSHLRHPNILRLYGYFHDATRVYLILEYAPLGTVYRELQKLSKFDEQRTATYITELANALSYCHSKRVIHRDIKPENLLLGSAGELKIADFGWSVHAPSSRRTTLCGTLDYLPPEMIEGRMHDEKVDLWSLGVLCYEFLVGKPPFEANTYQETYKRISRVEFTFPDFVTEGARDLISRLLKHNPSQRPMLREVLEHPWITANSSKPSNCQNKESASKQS
# [2] = target: RAC-alpha serine/threonine-protein kinase (Homo sapiens) (UniProt P31749); test: Inhibition of human PKBalpha assessed as residual activity at 0.1 uM in presence of ATP by radiometric filter-binding assay relative to control
# Chain of RAC-alpha serine/threonine-protein kinase (Homo sapiens) (P31749 whole entry): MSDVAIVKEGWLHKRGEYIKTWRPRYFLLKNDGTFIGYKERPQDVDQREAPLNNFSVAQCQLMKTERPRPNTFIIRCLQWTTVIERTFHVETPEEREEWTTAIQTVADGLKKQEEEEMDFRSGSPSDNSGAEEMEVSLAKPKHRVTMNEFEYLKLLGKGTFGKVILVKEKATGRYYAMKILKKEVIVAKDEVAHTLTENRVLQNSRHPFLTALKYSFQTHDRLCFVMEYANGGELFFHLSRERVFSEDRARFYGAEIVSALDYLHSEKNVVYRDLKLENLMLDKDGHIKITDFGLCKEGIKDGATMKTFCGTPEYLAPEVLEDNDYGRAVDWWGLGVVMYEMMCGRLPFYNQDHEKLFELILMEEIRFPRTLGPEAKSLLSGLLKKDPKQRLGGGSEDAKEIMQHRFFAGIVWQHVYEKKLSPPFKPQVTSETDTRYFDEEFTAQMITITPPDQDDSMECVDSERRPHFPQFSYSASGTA
# [3] = target: T2, cAMP-dependent protein kinase catalytic subunit alpha (Homo sapiens, UniProt P17612); test: Inhibition of ARC-1063 fluorescent probe binding to recombinant human PKAC-alpha incubated for 1 hr by time-gated luminescence intensity based displacement assay
# [4] = target: RAC-beta serine/threonine-protein kinase (Homo sapiens) (UniProt P31751); test: Inhibition of human PKB-beta assessed as residual activity at 0.1 uM in presence of ATP by radiometric filter-binding assay relative to control
# Chain of RAC-beta serine/threonine-protein kinase (Homo sapiens) (P31751 whole entry): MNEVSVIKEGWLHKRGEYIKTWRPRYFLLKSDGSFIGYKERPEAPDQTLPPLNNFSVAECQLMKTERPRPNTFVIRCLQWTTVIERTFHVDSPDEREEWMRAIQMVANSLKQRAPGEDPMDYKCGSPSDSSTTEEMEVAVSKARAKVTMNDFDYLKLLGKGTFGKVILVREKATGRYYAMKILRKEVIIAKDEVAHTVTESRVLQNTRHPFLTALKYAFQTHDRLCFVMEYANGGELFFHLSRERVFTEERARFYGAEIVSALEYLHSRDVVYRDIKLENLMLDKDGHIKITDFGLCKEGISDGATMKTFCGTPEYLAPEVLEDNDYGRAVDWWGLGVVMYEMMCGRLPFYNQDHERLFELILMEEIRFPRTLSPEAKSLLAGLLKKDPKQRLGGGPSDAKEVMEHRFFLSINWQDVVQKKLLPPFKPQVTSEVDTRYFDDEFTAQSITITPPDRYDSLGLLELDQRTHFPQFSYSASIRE
# [5] = target: Ribosomal protein S6 kinase alpha-5 (Homo sapiens) (UniProt O75582); test: Inhibition of N-terminal 6His-tagged recombinant human spiked MSK1 (2 to end residues) assessed as residual activity relative to control
# Chain of Ribosomal protein S6 kinase alpha-5 (Homo sapiens) (O75582 whole entry, looked up): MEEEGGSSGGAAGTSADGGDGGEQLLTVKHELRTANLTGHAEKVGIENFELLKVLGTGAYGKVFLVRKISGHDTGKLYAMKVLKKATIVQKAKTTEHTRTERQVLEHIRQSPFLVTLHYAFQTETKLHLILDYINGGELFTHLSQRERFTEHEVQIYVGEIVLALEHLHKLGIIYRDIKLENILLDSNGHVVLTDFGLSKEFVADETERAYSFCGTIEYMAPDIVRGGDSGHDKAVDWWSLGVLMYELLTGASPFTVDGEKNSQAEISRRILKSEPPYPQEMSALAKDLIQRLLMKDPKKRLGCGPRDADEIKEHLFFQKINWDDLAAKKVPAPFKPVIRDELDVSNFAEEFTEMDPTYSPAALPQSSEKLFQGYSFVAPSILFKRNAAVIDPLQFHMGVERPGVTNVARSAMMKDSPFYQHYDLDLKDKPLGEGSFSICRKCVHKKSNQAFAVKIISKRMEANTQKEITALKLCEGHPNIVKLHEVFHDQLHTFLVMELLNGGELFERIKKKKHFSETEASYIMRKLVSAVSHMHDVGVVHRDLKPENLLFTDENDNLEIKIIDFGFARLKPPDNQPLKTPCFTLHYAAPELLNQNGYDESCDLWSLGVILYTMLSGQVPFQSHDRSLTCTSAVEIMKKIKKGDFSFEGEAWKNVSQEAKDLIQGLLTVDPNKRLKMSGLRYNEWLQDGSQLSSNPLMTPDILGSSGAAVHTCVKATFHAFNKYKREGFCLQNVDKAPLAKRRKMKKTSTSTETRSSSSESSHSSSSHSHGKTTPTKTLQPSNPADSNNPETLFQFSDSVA
# Homo sapiens = organism: Homo sapiens; test: Selectivity index, ratio of Kd for N-terminal 6His-tagged active recombinant human spiked Akt3 S472D mutant (117 to end residues) to Kd for human recombinant PKACalpha
# [6] = target: T2, cAMP-dependent protein kinase catalytic subunit alpha; test: Inhibition of recombinant human PKAC-alpha assessed as residual activity at 0.1 uM in presence of ATP by radiometric filter-binding assay relative to control
# [7] = target: T2, cAMP-dependent protein kinase catalytic subunit alpha; test: Displacement of ARC-1063 fluorescent probe from recombinant human PKAC-alpha assessed as dissociation half life preincubated for 1 hr followed by photoluminescent probe addition by time-gated luminescence intensity based assay
# [8] = target: Rho-associated protein kinase 2 (Homo sapiens) (UniProt O75116); test: Inhibition of recombinant human GST-tagged ROCK-2 catalytic domain (1 to 552 residues) assessed as residual activity at 0.1 uM in presence of ATP by radiometric filter-binding assay relative to control
# Chain of Rho-associated protein kinase 2 (Homo sapiens) (O75116 whole entry, looked up, the tested form may be a part): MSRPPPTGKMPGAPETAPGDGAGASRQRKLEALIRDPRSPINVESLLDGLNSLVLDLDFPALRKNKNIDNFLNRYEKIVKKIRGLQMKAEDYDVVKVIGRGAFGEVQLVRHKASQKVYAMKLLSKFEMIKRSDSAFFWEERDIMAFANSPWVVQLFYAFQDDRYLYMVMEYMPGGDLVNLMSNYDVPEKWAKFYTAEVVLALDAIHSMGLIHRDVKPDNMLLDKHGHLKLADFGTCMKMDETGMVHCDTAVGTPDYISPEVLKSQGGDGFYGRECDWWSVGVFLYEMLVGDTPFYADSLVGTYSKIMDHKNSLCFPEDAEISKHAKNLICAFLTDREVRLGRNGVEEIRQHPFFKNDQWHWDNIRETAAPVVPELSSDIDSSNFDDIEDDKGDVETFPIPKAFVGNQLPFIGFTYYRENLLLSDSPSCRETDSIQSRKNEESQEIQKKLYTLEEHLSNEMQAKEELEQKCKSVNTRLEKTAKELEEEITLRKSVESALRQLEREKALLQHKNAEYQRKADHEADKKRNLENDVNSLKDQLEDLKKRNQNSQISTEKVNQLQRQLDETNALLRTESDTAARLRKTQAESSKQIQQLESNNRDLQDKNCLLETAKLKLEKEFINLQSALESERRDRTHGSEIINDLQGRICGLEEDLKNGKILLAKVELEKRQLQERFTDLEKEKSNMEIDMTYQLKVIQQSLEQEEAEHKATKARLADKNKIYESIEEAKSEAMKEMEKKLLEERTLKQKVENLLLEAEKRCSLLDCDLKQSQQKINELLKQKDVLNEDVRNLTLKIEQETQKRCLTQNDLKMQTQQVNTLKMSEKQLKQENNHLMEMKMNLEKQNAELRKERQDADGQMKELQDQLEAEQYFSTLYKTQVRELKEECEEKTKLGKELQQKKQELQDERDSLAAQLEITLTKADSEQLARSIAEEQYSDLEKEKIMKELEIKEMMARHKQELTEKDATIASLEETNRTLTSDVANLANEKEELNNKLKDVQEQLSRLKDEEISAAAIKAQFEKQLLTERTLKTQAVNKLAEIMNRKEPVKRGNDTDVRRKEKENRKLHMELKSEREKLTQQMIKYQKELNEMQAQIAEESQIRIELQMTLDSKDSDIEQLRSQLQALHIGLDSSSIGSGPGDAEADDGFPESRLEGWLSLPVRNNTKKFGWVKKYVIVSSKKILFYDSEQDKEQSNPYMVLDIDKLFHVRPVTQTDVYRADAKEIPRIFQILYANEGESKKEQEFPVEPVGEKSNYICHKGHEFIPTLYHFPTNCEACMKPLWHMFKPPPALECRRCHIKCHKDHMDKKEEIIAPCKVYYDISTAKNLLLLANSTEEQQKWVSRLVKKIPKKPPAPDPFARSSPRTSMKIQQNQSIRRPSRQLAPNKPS
# [9] = target: T2, cAMP-dependent protein kinase catalytic subunit alpha; test: Displacement of ARC-1063 fluorescent probe from recombinant human PKAC-alpha assessed as dissociation equilibrium constant preincubated for 1 hr followed by photoluminescent probe addition by time-gated luminescence intensity based assay
# [10] = target: T2, cAMP-dependent protein kinase catalytic subunit alpha; test: Displacement of ARC-1063 fluorescent probe from recombinant human PKAC-alpha assessed as binding constant (kon) preincubated for 1 hr followed by photoluminescent probe addition by time-gated luminescence intensity based assay
# [11] = target: Aurora kinase B (Homo sapiens) (UniProt Q96GD4); test: Inhibition of N-terminal 6His-tagged active recombinant full length human Aurora B-mediated phosphorylation assessed as residual activity at 100 nM relative to control
# Chain of Aurora kinase B (Homo sapiens) (Q96GD4 whole entry): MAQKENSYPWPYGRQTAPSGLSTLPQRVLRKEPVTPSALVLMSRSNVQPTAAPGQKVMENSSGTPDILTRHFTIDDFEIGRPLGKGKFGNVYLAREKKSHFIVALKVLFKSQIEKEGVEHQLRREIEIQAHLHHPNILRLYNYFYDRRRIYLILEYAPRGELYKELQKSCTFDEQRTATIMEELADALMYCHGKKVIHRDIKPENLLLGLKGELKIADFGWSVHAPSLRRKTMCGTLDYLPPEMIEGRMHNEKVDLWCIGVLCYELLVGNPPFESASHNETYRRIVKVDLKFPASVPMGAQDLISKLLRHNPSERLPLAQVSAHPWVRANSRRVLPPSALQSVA
# [12] = target: T2, cAMP-dependent protein kinase catalytic subunit alpha; test: Binding affinity to human recombinant PKACalpha assessed as compound-protein adduct formation by measuring half life at 30 degreeC
# [13] = GSH reactivity in potassium phosphate buffer at pH 7.4 assessed as half life at 0.15 mM at 37 degreeC measured for 30 to 60 mins by HPLC-MS analysis; type: physicochemical; settings: potassium phosphate buffer with GSH, time 30-60 min
# [14] = target: T2, cAMP-dependent protein kinase catalytic subunit alpha; test: Binding affinity to human recombinant PKAC-alpha assessed as reduction in TGLI signal at 10 uM pretreated with compound followed by ARC-1063 fluorescent probe addition by time-gated luminescence intensity based displacement assay; settings: time 60-480 min, TDE = time-dependent effect
# [15] = target: T2, cAMP-dependent protein kinase catalytic subunit alpha; test: Binding affinity to human recombinant PKAC-alpha at Cys199 residue assessed as compound-protein adduct formation by measuring mass difference at 3.5 uM incubated for 2 hrs by LC-MS/MS analysis
# [16] = Drug degradation in phosphate buffer at pH 7.4 assessed as half life at 0.15 mM at 37 degreeC measured for 30 to 60 mins by HPLC-MS analysis; type: ADME; settings: time 30-60 min
# [17] = target: T2, cAMP-dependent protein kinase catalytic subunit alpha; test: Covalent inhibition of human recombinant PKAC-alpha assessed as inhibition constant
# [18] = Drug degradation in phosphate buffer at pH 7.4 assessed as half life at 0.15 mM at 30 degreeC measured for 30 to 60 mins by HPLC-MS analysis; type: ADME; settings: time 30-60 min
# [19] = target: T2, cAMP-dependent protein kinase catalytic subunit alpha; test: Binding affinity to human recombinant PKAC-alpha assessed as inactivation constant incubated for 1 hr by time-gated luminescence intensity based displacement assay
# [20] = target: T2, cAMP-dependent protein kinase catalytic subunit alpha; test: Binding affinity to human recombinant PKAC-alpha assessed as inactivation constant measured upto 60 mins by Western blot analysis
# [21] = GSH reactivity in potassium phosphate buffer at pH 7.4 assessed as half life at 0.15 mM at 30 degreeC measured for 30 to 60 mins by HPLC-MS analysis; type: physicochemical; settings: potassium phosphate buffer with GSH, time 30-60 min
# [22] = Drug uptake in live human HeLa cells assessed as drug penetration by measuring increase in fluorescence intensity at 5 uM incubated for 2 hrs by PKAc antibody immunostaining based Western blot analysis; type: ADME, cell-based
# [23] = Drug uptake in human HeLa cell lysates assessed as drug penetration by measuring increase in fluorescence intensity at 1.5 uM incubated for 2 hrs by PKAc antibody immunostaining based Western blot analysis; type: ADME, subcellular
# [24] = target: T2, cAMP-dependent protein kinase catalytic subunit alpha; test: Binding affinity to recombinant human spiked PKAC-alpha in human HeLa cells assessed as covalent compound-protein adduct formation by measuring multiple fluorescent band formation at 0.15 to 1 uM incubated for 1 hr by 5-TAMRA dye based Western blot analysis; type: cell-based; settings: dose 0.15-1 µM
# [25] = target: T2, cAMP-dependent protein kinase catalytic subunit alpha; test: Binding affinity to recombinant human PKAC-alpha in human HeLa cells assessed as increase in intensity of fluorescent labeled bands at 5 uM incubated for 2 hrs in presence of forskolin by Western blot analysis; type: cell-based
# [26] = target: T2, cAMP-dependent protein kinase catalytic subunit alpha; test: Binding affinity to recombinant human spiked PKAC-alpha in human U2OS cell lysates assessed as covalent compound-protein adduct formation at 1.5 uM incubated for 1 hr in presence of PK inhibitor, staurosporin by 5-TAMRA dye based Western blot analysis; type: subcellular
# [27] = tested on: RAC-gamma serine/threonine-protein kinase (Homo sapiens), Q9Y243 [S472D]; test: Binding affinity to N-terminal 6His-tagged active recombinant human spiked Akt3 S472D mutant (117 to end residues) in human PC-3 cell lysates assessed as irreversible compound-protein adduct formation at 150 nM incubated for 1 hr by 5-TAMRA dye based Western blot analysis; type: subcellular
# Chain of RAC-gamma serine/threonine-protein kinase (Homo sapiens), Q9Y243 [S472D] (Q9Y243 whole entry S472D): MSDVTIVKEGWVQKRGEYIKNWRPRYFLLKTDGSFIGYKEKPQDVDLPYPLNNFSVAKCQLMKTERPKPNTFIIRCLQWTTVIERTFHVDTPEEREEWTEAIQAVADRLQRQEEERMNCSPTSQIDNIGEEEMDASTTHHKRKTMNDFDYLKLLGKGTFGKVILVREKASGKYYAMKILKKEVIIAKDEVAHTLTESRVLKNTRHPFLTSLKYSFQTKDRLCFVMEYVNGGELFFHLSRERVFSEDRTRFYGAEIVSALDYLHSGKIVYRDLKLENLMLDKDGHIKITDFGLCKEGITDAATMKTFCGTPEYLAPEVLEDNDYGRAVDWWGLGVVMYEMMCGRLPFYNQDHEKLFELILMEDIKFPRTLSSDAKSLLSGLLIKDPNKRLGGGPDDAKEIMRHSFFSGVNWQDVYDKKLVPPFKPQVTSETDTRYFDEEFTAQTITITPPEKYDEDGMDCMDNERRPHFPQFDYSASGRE
# [28] = target: T2, cAMP-dependent protein kinase catalytic subunit alpha; test: Binding affinity to recombinant human active PKAC-alpha assessed as compound-protein adduct formation by measuring formation of three bands at 1.5 uM incubated for 1 hr by 5-TAMRA dye based immunostaining analysis
# [29] = target: T2, cAMP-dependent protein kinase catalytic subunit alpha; test: Binding affinity to recombinant human spiked PKAC-alpha in human HeLa cells assessed as covalent compound-protein adduct formation by measuring multiple fluorescent band formation at 1.5 uM incubated for 1 hr by 5-TAMRA dye based Western blot analysis; type: cell-based
# [30] = target: T1, Aurora kinase A (Homo sapiens); test: Binding affinity to N-terminal 6His-tagged active recombinant full length human spiked Aurora A in human PC-3 cell lysates assessed as irreversible compound-protein adduct formation by measuring remaining activity at 150 nM incubated for 1 hr by Aurora A antibody immunostaining based Western blot analysis; type: subcellular
# [31] = target: T2, cAMP-dependent protein kinase catalytic subunit alpha; test: Binding affinity to recombinant human spiked PKAC-alpha in human U2OS cell lysates assessed as covalent compound-protein adduct formation at 1.5 uM incubated for 1 hr by 5-TAMRA dye based Western blot analysis; type: subcellular
# [32] = target: T2, cAMP-dependent protein kinase catalytic subunit alpha; test: Binding affinity to recombinant human spiked PKAC-alpha in human U2OS cell lysates assessed as covalent compound-protein adduct formation at 1.5 uM incubated for 1 hr in presence of GSH by 5-TAMRA dye based Western blot analysis; type: subcellular
# [33] = target: T2, cAMP-dependent protein kinase catalytic subunit alpha; test: Binding affinity to recombinant human spiked PKAC-alpha in human HeLa cells assessed as covalent compound-protein adduct formation by measuring multiple fluorescent band formation at 150 nM incubated for 1 hr by 5-TAMRA dye based Western blot analysis; type: cell-based
# [34] = target: Ribosomal protein S6 kinase alpha-5 (Homo sapiens) (UniProt O75582); test: Binding affinity to N-terminal 6His-tagged recombinant human spiked MSK1 (2 to end residues) in human PC-3 cell lysates assessed as irreversible compound-protein adduct formation at 150 nM incubated for 1 hr by 5-TAMRA dye based Western blot analysis; type: subcellular
# [35] = target: cAMP-dependent protein kinase catalytic subunit beta (Homo sapiens) (UniProt P22694); test: Binding affinity to recombinant full length human spiked PKAC-beta in human PC-3 cell lysates assessed as irreversible compound-protein adduct formation by measuring remaining activity at 150 nM measured after 1 hr by […] immunostaining based Western blot analysis; type: subcellular
# [36] = target: T1, Aurora kinase A (Homo sapiens); test: Binding affinity to N-terminal 6His-tagged active recombinant full length human spiked Aurora A in human PC-3 cell lysates assessed as irreversible compound-protein adduct formation at 150 nM incubated for 1 hr by 5-TAMRA dye based Western blot analysis; type: subcellular
# [37] = target: cAMP-dependent protein kinase catalytic subunit beta (Homo sapiens) (UniProt P22694); test: Binding affinity to recombinant full length human spiked PKAC-beta in human PC-3 cell lysates assessed as irreversible compound-protein adduct formation at 150 nM incubated for 1 hr by 5-TAMRA dye based Western blot analysis; type: subcellular
# [38] = target: T2, cAMP-dependent protein kinase catalytic subunit alpha; test: Binding affinity to recombinant human spiked PKAC-alpha in human PC-3 cell lysates assessed as covalent compound-protein adduct formation at 15 nM incubated for 1 hr by 5-TAMRA dye based Western blot analysis; type: subcellular
# [39] = tested on: RAC-gamma serine/threonine-protein kinase (Homo sapiens), Q9Y243 [S472D]; test: Binding affinity to N-terminal 6His-tagged active recombinant human spiked Akt3 S472D mutant (117 to end residues) in human PC-3 cell lysates assessed as irreversible compound-protein adduct formation by measuring remaining activity at 150 nM incubated for 1 hr by Akt3 antibody immunostaining based Western blot analysis; type: subcellular
smiles,measurement,setting,value
CC[C@H](C)[C@H](NC(=O)CCC(=O)N[C@@H](CCCCNC(=O)[C@@H](CCCNC(=N)N)NC(=O)CCCCCCCC(=O)N1CCN(c2ncnc3[nH]ccc23)CC1)C(=O)N[C@H](CCCNC(=N)N)C(=O)N[C@H](CCCNC(=N)N)C(N)=O)C(=O)NCC(C)=O,Activity,[1],102%
same,Activity,[2],8%
same,IC50,[3],24 nM
same,Activity,[4],9%
same,Activity,[5],21%
same,Ratio,Homo sapiens,200
same,Activity,[6],2%
same,T1/2,[7],4.5 min
same,Activity,[8],8%
same,Kd,[9],0.019 nM
same,K,[10],1.4 10^8/M/s
same,Activity,[11],93%
CC[C@H](C)[C@H](NC(=O)CCC(=O)N[C@@H](CCCCNC(=O)[C@@H](CCCNC(=N)N)NC(=O)CCCCCCCC(=O)N1CCN(c2ncnc3[nH]ccc23)CC1)C(=O)N[C@H](CCCNC(=N)N)C(=O)N[C@H](CCCNC(=N)N)C(N)=O)C(=O)NCC(=O)CF,T1/2,[12],19.2 min
same,half-life at 150 µM,[13],22.2 min
same,T1/2,[7],19 min
same,Activity,[14],Tde
same,Activity,[15],Active
same,half-life at 150 µM,[16],57 min
same,Ki,[17],0.023 nM
same,half-life at 150 µM,[18],78.6 min
same,Kinact,[19],6.1 10^-4/s
same,Kinact,[20],5.8 10^-4/s
same,half-life at 150 µM,[21],44.4 min
CC[C@H](C)[C@H](NC(=O)CCC(=O)N[C@@H](CCCCNC(=O)[C@@H](CCCNC(=N)N)NC(=O)CCCCCCCC(=O)N1CCN(c2ncnc3[nH]ccc23)CC1)C(=O)N[C@H](CCCNC(=N)N)C(=O)N[C@H](CCCNC(=N)N)C(=O)N[C@H](CCCCNC(=O)CCCCC[N+]1=C(/C=C/C=C/C=C2\N(C)c3ccc4ccccc4c3C2(C)C)C(C)(C)c2c1ccc1ccccc21)C(N)=O)C(=O)NCC(=O)CF,Drug uptake,[22],Active
same,Drug uptake,[23],Active
same,Activity,[24],Active
same,Activity,[25],Active
CC[C@H](C)[C@H](NC(=O)CCC(=O)N[C@@H](CCCCNC(=O)[C@@H](CCCNC(=N)N)NC(=O)CCCCCCCC(=O)N1CCN(c2ncnc3[nH]ccc23)CC1)C(=O)N[C@H](CCCNC(=N)N)C(=O)N[C@H](CCCNC(=N)N)C(=O)N[C@H](CCCCNC(=O)c1ccc(-c2c3ccc(=[N+](C)C)cc-3oc3cc(N(C)C)ccc23)c(C(=O)O)c1)C(N)=O)C(=O)NCC(=O)CF,Activity,[26],Active
same,Activity,[27],Active
same,Activity,[28],Active
same,Activity,[29],Active
same,Activity,[30],Active
same,Activity,[31],Active
same,Activity,[32],Active
same,Activity,[33],Active
same,Activity,[34],Active
same,Activity,[35],Active
same,Activity,[36],Active
same,Activity,[37],Active
same,Activity,[38],Active
same,Activity,[39],Active
